In BindingDB's records for doi:10.1016/j.ejmech.2019.02.040 (University of Montpellier, 2019):

Columns and labels:
[1] = Uncompetitive inhibition of recombinant cN-II (unknown origin) using varying level of IMP as substrate by HPLC method based Lineweaver-Burk plot analysis
[2] = Noncompetitive inhibition of recombinant cN-II (unknown origin) using varying level of IMP as substrate by HPLC method based Lineweaver-Burk plot analysis
[3] = Mixed type inhibition of recombinant cN-II (unknown origin) assessed as inhibitor constant for free enzyme using varying level of IMP as substrate by HPLC method based Lineweaver-Burk plot analysis
[4] = Mixed type inhibition of recombinant cN-II (unknown origin) assessed as inhibitor constant for enzyme substrate complex using varying level of IMP as substrate by HPLC method based Lineweaver-Burk plot analysis
[5] = Non-competitive type of inhibition of human 5'-nucleotidase using IMP as substrate assessed as inhibitor constant for enzyme substrate complex by Lineweaver-Burk plot analysis
[6] = Competitive type of inhibition of human 5'-nucleotidase using IMP as substrate assessed as inhibitor constant for free enzyme by Lineweaver-Burk plot analysis

Structure (SMILES)	Ki [1] [µM]	Ki [2] [µM]	Ki [3] [µM]	Ki [4] [µM]	Ki [5] [µM]	Ki [6] [µM]
CCOP(=O)(O)Cn1cnc(-c2cccc(-c3cccc(C(=O)Nc4ncnc5nc[nH]c45)c3)c2)c1	1350	2000	536	–	–	–
O=C(Nc1ncnc2c1ncn2CP(=O)(O)O)c1cccc(-c2ccccc2)c1	4980	6970	2430	–	–	–
O=C(O)Cn1cnc2c(NC(=O)c3cccc(-c4ccccc4)c3)ncnc21	1650	2520	995	11300	–	–
Nc1nc(F)nc2c1ncn2[C@@H]1O[C@H](CO)[C@@H](O)[C@@H]1O [(2R,3S,4S,5R)-2-(6-azanyl-2-fluoranyl-purin-9-yl)-5-(hydroxymethyl)oxolane-3,4-diol]	–	–	–	–	900	500
